In patent US7241937B2, “Methods and materials for improving plant drought tolerance” (Ceres, Inc., priority 2004, dated 2007):

Tested on: NCED3 transgenic seeds
Experiment: GA3 treatment: germination of NCED3 transgenic R2 seeds on growth medium containing GA3
Type: in vivo, rice
Description: GA3 treatment: R2 seeds were surface-sterilized with 20% bleach and germinated on half-strength MS containing 0.4 mL/L Finale and filter-sterilized GA3 (gibberellin) to final concentrations of 0, 10, 100, 250, 500 or 1,000 μM.
ABA and GA3 (gibberellin) can act antagonistically in seed germination. To determine whether GA3 could release the prolonged dormancy evident in the NCED3 transgenic seeds, GA3 was added to the growth medium on which the seeds were placed for germination. […] Thus, addition of exogenous of GA3 can, at least in part, overcome the off-type of prolonged dormancy.

C=C1C[C@]23C[C@@]1(O)CC[C@H]2[C@@]12C=C[C@H](O)[C@@](C)(C(=O)O1)[C@H]2[C@@H]3C(=O)O [GA3]
seed germination (release of prolonged dormancy) (GA3 at a concentration as low as 10 μM in the growth medium): accelerated germination | seedling elongation (higher concentrations of GA3): more elongated | seed germination (higher concentrations of GA3 (100-1,000 μM) compared with 10 μM): did not significantly improve seed germination
